From PubChem BioAssay (NCI)
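Where inhibition never reached the appropriate level, the endpoint shown equals the highest concentration tested. Otherwise, values were interpolated linearly from a five-concentration, 48-hour dose response in 96-well plates. Abbreviation: GI50, concentration required for 50% inhibition of growth. TGI denotes the concentration required for complete inhibition of growth.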

How the values were obtained:
Test in all cases: inhibition of tumour cell growth, NCI panel, 48 h
OVCAR-5 ovarian = system: OVCAR-5 ovarian
HT29 colon = system: HT29 colon
M14 melanoma = system: M14 melanoma
CAKI-1 renal = system: CAKI-1 renal
NCI-H522 lung = system: NCI-H522 lung
SW-620 colon = system: SW-620 colon
PC-3 prostate = system: PC-3 prostate
BT-549 breast = system: BT-549 breast
KM12 colon = system: KM12 colon
A498 renal = system: A498 renal
NCI/ADR-RES ovarian = system: NCI/ADR-RES ovarian
MDA-MB-435 = system: MDA-MB-435
TK-10 renal = system: TK-10 renal
SK-MEL-5 melanoma = system: SK-MEL-5 melanoma
OVCAR-4 ovarian = system: OVCAR-4 ovarian
MCF7 breast = system: MCF7 breast
HCC-2998 colon = system: HCC-2998 colon
EKVX NSCLC = system: EKVX NSCLC
OVCAR-3 ovarian = system: OVCAR-3 ovarian
SK-MEL-2 melanoma = system: SK-MEL-2 melanoma
SF-268 CNS = system: SF-268 CNS
UACC-257 melanoma = system: UACC-257 melanoma
UACC-62 melanoma = system: UACC-62 melanoma
HS 578T breast = system: HS 578T breast
IGROV1 ovarian = system: IGROV1 ovarian
CCRF-CEM leukemia = system: CCRF-CEM leukemia
MOLT-4 leukemia = system: MOLT-4 leukemia
T-47D breast = system: T-47D breast
HCT-116 colon = system: HCT-116 colon
COLO 205 colon = system: COLO 205 colon
SF-295 CNS = system: SF-295 CNS
SN12C renal = system: SN12C renal
ACHN renal = system: ACHN renal
NCI-H460 lung = system: NCI-H460 lung
RPMI-8226 leukemia = system: RPMI-8226 leukemia
SNB-75 CNS = system: SNB-75 CNS
786-0 renal = system: 786-0 renal
A549 NSCLC = system: A549 NSCLC
UO-31 renal = system: UO-31 renal
HCT-15 colon = system: HCT-15 colon
K-562 leukemia = system: K-562 leukemia
HOP-92 NSCLC = system: HOP-92 NSCLC
RXF 393 renal = system: RXF 393 renal
DU-145 prostate = system: DU-145 prostate
OVCAR-8 ovarian = system: OVCAR-8 ovarian
NCI-H226 lung = system: NCI-H226 lung
U251 CNS = system: U251 CNS
SF-539 CNS = system: SF-539 CNS
MALME-3M melanoma = system: MALME-3M melanoma
MDA-MB-231 breast = system: MDA-MB-231 breast
HOP-62 NSCLC = system: HOP-62 NSCLC
SK-OV-3 ovarian = system: SK-OV-3 ovarian
NCI-H23 lung = system: NCI-H23 lung
SK-MEL-28 melanoma = system: SK-MEL-28 melanoma
HL-60(TB) leukemia = system: HL-60(TB) leukemia
SNB-19 CNS = system: SNB-19 CNS

CCCCCCCC/C=C/CCCCCCCC1=NCC[N+]1(CCO)CCO gave a GI50 (OVCAR-5 ovarian) of 4.98 µM, a TGI (OVCAR-5 ovarian) of 18.9 µM and a GI50 (HT29 colon) of 1.38 µM. For the same compound, the TGI (HT29 colon) was 3.25 µM, the GI50 (M14 melanoma) was 2.26 µM and the TGI (M14 melanoma) was 5.77 µM. It also gave a GI50 (CAKI-1 renal) of 2.41 µM, a TGI (CAKI-1 renal) of 8.32 µM and a GI50 (NCI-H522 lung) of 1.61 µM. The TGI (NCI-H522 lung) was 4.46 µM, the GI50 (SW-620 colon) was 1.82 µM and the TGI (SW-620 colon) was 4.38 µM. It also gave a GI50 (PC-3 prostate) of 1.97 µM, a TGI (PC-3 prostate) of 6.17 µM and a GI50 (BT-549 breast) of 3.17 µM. For the same compound, the TGI (BT-549 breast) was 10.8 µM, the GI50 (KM12 colon) was 1.87 µM and the TGI (KM12 colon) was 3.61 µM. The GI50 (A498 renal) was 2.21 µM, the TGI (A498 renal) was 14.2 µM and the GI50 (NCI/ADR-RES ovarian) was 11.8 µM. For the same compound, the TGI (NCI/ADR-RES ovarian) was 37.7 µM, the GI50 (MDA-MB-435) was 2.35 µM and the TGI (MDA-MB-435) was 7.95 µM. It also gave a GI50 (TK-10 renal) of 1.94 µM, a TGI (TK-10 renal) of 4.39 µM and a GI50 (SK-MEL-5 melanoma) of 2.24 µM. The TGI (SK-MEL-5 melanoma) was 5.68 µM, the GI50 (OVCAR-4 ovarian) was 3.87 µM and the TGI (OVCAR-4 ovarian) was 14.9 µM. It also gave a GI50 (MCF7 breast) of 3.94 µM, a TGI (MCF7 breast) of 18.6 µM and a GI50 (HCC-2998 colon) of 3.67 µM. For the same compound, the TGI (HCC-2998 colon) was 20.3 µM, the GI50 (EKVX NSCLC) was 4.71 µM and the TGI (EKVX NSCLC) was 26.4 µM. For the same compound, the GI50 (OVCAR-3 ovarian) was 1.94 µM, the TGI (OVCAR-3 ovarian) was 4.42 µM and the GI50 (SK-MEL-2 melanoma) was 2.69 µM. The TGI (SK-MEL-2 melanoma) was 6.01 µM, the GI50 (SF-268 CNS) was 3.25 µM and the TGI (SF-268 CNS) was 13 µM. For the same compound, the GI50 (UACC-257 melanoma) was 2.25 µM, the TGI (UACC-257 melanoma) was 8.42 µM and the GI50 (UACC-62 melanoma) was 5 µM. The TGI (UACC-62 melanoma) was 21.4 µM, the GI50 (HS 578T breast) was 2.16 µM and the TGI (HS 578T breast) was 7.66 µM. For the same compound, the GI50 (IGROV1 ovarian) was 1.59 µM, the TGI (IGROV1 ovarian) was 3.35 µM and the GI50 (CCRF-CEM leukemia) was 1.6 µM. The TGI (CCRF-CEM leukemia) was 4.46 µM, the GI50 (MOLT-4 leukemia) was 2.23 µM and the TGI (MOLT-4 leukemia) was 6.58 µM. It also gave a GI50 (T-47D breast) of 7.08 µM, a TGI (T-47D breast) of 22.7 µM and a GI50 (HCT-116 colon) of 2.81 µM. The TGI (HCT-116 colon) was 8.78 µM, the GI50 (COLO 205 colon) was 1.98 µM and the TGI (COLO 205 colon) was 4.91 µM. It also gave a GI50 (SF-295 CNS) of 1.75 µM, a TGI (SF-295 CNS) of 4.07 µM and a GI50 (SN12C renal) of 3.2 µM. For the same compound, the TGI (SN12C renal) was 12.6 µM, the GI50 (ACHN renal) was 6.11 µM and the TGI (ACHN renal) was 20.8 µM. For the same compound, the GI50 (NCI-H460 lung) was 1.69 µM, the TGI (NCI-H460 lung) was 3.39 µM and the GI50 (RPMI-8226 leukemia) was 2.71 µM. It also gave a TGI (RPMI-8226 leukemia) of 10.8 µM, a GI50 (SNB-75 CNS) of 2.39 µM and a TGI (SNB-75 CNS) of 9.52 µM. For the same compound, the GI50 (786-0 renal) was 4.8 µM, the TGI (786-0 renal) was 22.1 µM and the GI50 (A549 NSCLC) was 2.77 µM. It also gave a TGI (A549 NSCLC) of 10.9 µM, a GI50 (UO-31 renal) of 3.97 µM and a TGI (UO-31 renal) of 19.7 µM. For the same compound, the GI50 (HCT-15 colon) was 3.16 µM, the TGI (HCT-15 colon) was 11 µM and the GI50 (K-562 leukemia) was 1.52 µM. For the same compound, the TGI (K-562 leukemia) was 4.34 µM, the GI50 (HOP-92 NSCLC) was 1.62 µM and the TGI (HOP-92 NSCLC) was 5.53 µM. For the same compound, the GI50 (RXF 393 renal) was 1.73 µM, the TGI (RXF 393 renal) was 4.2 µM and the GI50 (DU-145 prostate) was 4.41 µM. The TGI (DU-145 prostate) was 16.2 µM, the GI50 (OVCAR-8 ovarian) was 2.66 µM and the TGI (OVCAR-8 ovarian) was 10 µM. For the same compound, the GI50 (NCI-H226 lung) was 4.16 µM, the TGI (NCI-H226 lung) was 19.8 µM and the GI50 (U251 CNS) was 1.42 µM. The TGI (U251 CNS) was 2.86 µM, the GI50 (SF-539 CNS) was 3.7 µM and the TGI (SF-539 CNS) was 13.1 µM. For the same compound, the GI50 (MALME-3M melanoma) was 3.19 µM, the TGI (MALME-3M melanoma) was 12.4 µM and the GI50 (MDA-MB-231 breast) was 2.47 µM. For the same compound, the TGI (MDA-MB-231 breast) was 8.81 µM, the GI50 (HOP-62 NSCLC) was 6.36 µM and the TGI (HOP-62 NSCLC) was 19.8 µM. The GI50 (SK-OV-3 ovarian) was 10.1 µM, the TGI (SK-OV-3 ovarian) was 24.4 µM and the GI50 (NCI-H23 lung) was 3.05 µM. For the same compound, the TGI (NCI-H23 lung) was 16 µM, the GI50 (SK-MEL-28 melanoma) was 9.71 µM and the TGI (SK-MEL-28 melanoma) was 21.6 µM. The GI50 (HL-60(TB) leukemia) was 1.75 µM, the TGI (HL-60(TB) leukemia) was 4.68 µM and the GI50 (SNB-19 CNS) was 4.49 µM. It also gave a TGI (SNB-19 CNS) of 25.2 µM.
